As usually defined, the IC50 is the concentration at which inhibition is half-maximal.

The text below walks through data of EP3638670B1, “SUBSTITUTED PYRROLOPYRIDINE-DERIVATIVES AS MAP4K1 MODULATORS FOR THE TREATMENT OF CANCER DISEASES” (Bayer Pharma Aktiengesellschaft, priority 2017, dated 2018).

The target of one experiment is T1, MAP4K1 (Homo sapiens, UniProt Q92918).
T1 construct: A recombinant fusion protein of N-terminal GST and full-length human; made in house; host or cells: baculovirus-infected SF9 insect cells
T1 sequence (Q92918 whole entry, the tested form may be a part): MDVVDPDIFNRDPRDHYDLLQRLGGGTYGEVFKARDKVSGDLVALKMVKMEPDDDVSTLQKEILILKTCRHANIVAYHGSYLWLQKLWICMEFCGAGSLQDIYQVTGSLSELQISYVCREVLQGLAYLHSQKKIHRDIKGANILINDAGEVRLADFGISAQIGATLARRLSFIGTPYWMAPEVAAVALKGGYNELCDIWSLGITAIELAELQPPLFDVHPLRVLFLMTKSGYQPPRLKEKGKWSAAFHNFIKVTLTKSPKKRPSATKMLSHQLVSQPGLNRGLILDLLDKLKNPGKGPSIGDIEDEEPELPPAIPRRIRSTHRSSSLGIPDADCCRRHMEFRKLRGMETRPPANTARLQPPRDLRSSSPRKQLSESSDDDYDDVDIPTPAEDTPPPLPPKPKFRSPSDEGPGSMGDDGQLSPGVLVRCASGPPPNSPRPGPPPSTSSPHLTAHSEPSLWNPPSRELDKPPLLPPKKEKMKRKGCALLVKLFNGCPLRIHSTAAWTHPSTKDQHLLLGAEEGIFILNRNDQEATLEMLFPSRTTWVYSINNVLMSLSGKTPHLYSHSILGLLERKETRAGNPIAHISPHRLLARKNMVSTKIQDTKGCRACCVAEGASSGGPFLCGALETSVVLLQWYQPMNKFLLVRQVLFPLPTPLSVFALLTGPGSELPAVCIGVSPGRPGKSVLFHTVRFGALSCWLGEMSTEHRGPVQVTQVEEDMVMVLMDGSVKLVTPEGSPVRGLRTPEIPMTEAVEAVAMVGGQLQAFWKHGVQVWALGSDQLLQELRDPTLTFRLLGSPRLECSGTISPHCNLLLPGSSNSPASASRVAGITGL
Briefly: TR-FRET-based binding competition assay (Tracer 222, GST-fusion protein). The note with it: inhibition of binding of Tracer 222 (15 nM) to GST-fusion protein (1 nM), 30 min at 22°C. The source says: The ability of the compounds of the present invention to inhibit the binding of an Alexa647-labelled ATP-competitive kinase inhibitor to a Glutathione-S-transferase- (GST-) fusion protein was quantified employing the TR-FRET-based binding competition assay as described in the following paragraphs.
A recombinant fusion protein of N-terminal GST and full-length human , expressed by baculovirus infected SF9 insect cells and purified by Glutathione Sepharose affinity chromatography, was used as GST- fusion protein. Tracer 222 from Invitrogen (catalogue no. PR9198A) was used as Alexa647-labelled ATP-competitive kinase inhibitor. For the assay 50 nl of a 100fold concentrated solution of the test compound in DMSO was pipetted into either a black low volume 384well microtiter plate or a black 1536well microtiter plate (both Greiner Bio-One, Frickenhausen, Germany), 3 µl solution of Tracer 222 (25 nM => final concentration in 5 µl assay volume is 15 nM) in aqueous assay buffer [25 mM Tris/HCI pH 7.5, 10 mM MgCl2, 5 mM β-glycerolphosphate, 2.5 mM dithiothreitol, 0.5 mM ethylene glycol-bis(2-aminoethylether)-N,N,N',N'-tetraacetic acid [EGTA], 0.5 mM sodium orthovanadate, 0.01 % (w/v) bovine serum albumin [BSA], 0.005% (w/v) Pluronic F-127 (Sigma)] were added. Then the binding competition was started by the addition of 2 µl of a solution of the GST- fusion protein (2.5 nM => final conc. in the 5 µl assay volume is 1 nM) and of Anti-GST-Tb (1.25 nM => final conc. in the 5 µl assay volume is 0.5 nM), a Lumi4®-Tb Cryptate-conjugated anti-GST-antibody from Cisbio Bioassays (France), in assay buffer.
The resulting mixture was incubated 30 min at 22°C to allow the formation of a complex between the Tracer 222, the fusion protein and Anti-GST-Tb. Subsequently the amount of this complex was evaluated by measurement of the resonance energy transfer from the Tb-cryptate to the Tracer 222. Therefore, the fluorescence emissions at 620 nm and 665 nm after excitation at 350 nm were measured in a TR-FRET reader, e.g. a Pherastar (BMG Labtechnologies, Offenburg, Germany) or a Viewlux (Perkin-Elmer). The ratio of the emissions at 665 nm and at 622 nm was taken as the measure for the amount of the complex. The data were normalised (assay reaction without inhibitor = 0 % inhibition, all other assay components but GST- fusion protein = 100 % inhibition). […] Table 1: Measured IC50 values of compounds regarding inhibition
For orientation: In TR-FRET formats the signal depends on donor and acceptor labels being close together.

In a further experiment the test system is pSer376-SLP-76. Briefly: Phosphorylation assay in human cell line (pSer376-SLP-76, capillary electrophoresis). In kind it is cell-based. The note with it: 0.5 h, Jurkat E6.1 cells overexpressing FLAG-tagged SLP-76, a-CD3 (OKT3) stimulation, 30 min at 37 °C; for activity at 10 µM: 10µM compound, read-out: % amount of pSer376-SLP-76 @ 10µM; for activity at 20 µM: 20µM compound, read-out: % amount of pSer376-SLP-76 @ 20µM. As to the method: Phosphorylation assays were carried out in Jurkat E6.1 cells from American Type Culture Collection (ATCC) stably overexpressing human FLAG-tagged SLP-76 (proprietary). Cultured cells were kept in RPMI 1640 medium supplemented with 1% FCS at a cell density of 2x 10e6/mL 24h prior compound testing. Starved cells were simultaneously treated with 350 ng/mL a-CD3 antibody (clone OKT3. ebioscience #16-0037-85. plate-bound) and test compound for 30 min at 37 °C. Applied compounds were tested at either fixed concentration of 10 µmol/L and 20 µmol/L or in a 8 point dose response titration of increase compound concentration with 10 nmol/L. 50 nmol/L. 100 nmol/L. 500 nmol/L. 1 µmol/L. 5 µmol/L. 10 µmol/L and 20 µmol/L in triplicates. The cells were washed once in phosphate-buffered saline (pH 7.4). Cells were lysed using a lysis buffer containing 50 mmol/L Tris-CI (pH 7.5). 150 mM NaCl. 2 mM EDTA. 1% Triton-X 100. 0.5 % Na-DOC. 0.1% SDS. 1/10 complete mini protease inhibitor cocktail (Roche #11836170001) and 1/10 PhosSTOP phosphatase inhibitor cocktail (Roche #04906837001). A total of 1.25 µg cell lysate was analyzed by capillary electrophoresis using the Peggy Sue™ System (proteinsimple® San Jose. CA USA) with a 12-230kDa sizebased master kit with split buffer / a-rabbit-HRP #PS-MK18 / a-mouse-HRP #PS-MK19 according to manufacture's protocol. Probe antibodies used were a rabbit monoclonal antibody supernatant raised against human phospho-Ser376-SLP-76 peptide (proprietary) and for mormalization an a-alpha-Tubulin. mouse monoclonal antibody (Sigma #T9026). As control for maximal effect (max control. which represent the maximally possible inhibition of pSer376-SLP-76 by a test compound) cells with no a-CD3 (clone OKT3. ebioscience #16-0037-85. plate-bound) and no test compound treatment were used. Cells with a-CD3 treatment only were used as negative control (min control. which represent the minimally possible inhibition of pSer376-SLP-76 by a test compound)
AUC values of each respective test sample were normalized using the AUC of housekeeping gene alpha-Tubulin and AUC of pSer376-SLP-76 of the min control. The percentage of the amount of pSer-SLP-76 in the treatment samples was calculated using the max control and min control values of the respective Peggy Sue™ run. Table 3: Measured % amount of pSer376-SLP-76 of compound

As to `O=C(NCCCN1CCOCC1)Nc1ccc(Oc2ccnc3[nH]cc(C(F)(F)F)c23)c(OC(F)(F)F)c1` [Example 12, 1-[3-(morpholin-4-yl)propyl]-3-[3-(trifluoromethoxy)-4-{[3-(trifluoromethyl)-1H-pyrrolo[2,3-b]pyridin-4-yl]oxy}phenyl]urea], at MAP4K1, the IC50 is 469 nM. In the experiment with pSer376-SLP-76, the activity at 10 µM is 61.8% and the activity at 20 µM came out at 23.9%.

On to `O=C(NCCN1CCOCC1)Nc1ccc(Oc2ccnc3[nH]cc(C(F)(F)F)c23)c(C(F)(F)F)c1` [Example 1, 1-[2-(morpholin-4-yl)ethyl]-3-[3-(trifluoromethyl)-4-{[3-(trifluoromethyl)-1H-pyrrolo[2,3-b]pyridin-4-yl]oxy}phenyl]urea], for which, on MAP4K1, the half-inhibitory concentration (IC50) was found to be 69.4 nM. Moreover, in the experiment on pSer376-SLP-76, the activity at 10 µM came to 25.2% and the activity at 20 µM was found to be 5.5%.

For the compound `COc1cc(NC(=O)NCCCN2CCOCC2)ccc1Oc1ccnc2[nH]cc(C(F)(F)F)c12` [Example 11, 1-(3-methoxy-4-{[3-(trifluoromethyl)-1H-pyrrolo[2,3-b]pyridin-4-yl]oxy}phenyl)-3-[3-(morpholin-4-yl)propyl]urea], the IC50 at MAP4K1 was 315 nM. For the same compound, in the experiment with pSer376-SLP-76, the activity at 10 µM is 68.1% and the activity at 20 µM stood at 53.8%.

On to `O=C(NCCN1CCOCC1)Nc1ccc(Oc2ccnc3[nH]cc(C(F)(F)F)c23)c(OC(F)(F)F)c1` [Example 13, 1-[2-(morpholin-4-yl)ethyl]-3-[3-(trifluoromethoxy)-4-{[3-(trifluoromethyl)-1H-pyrrolo[2,3-b]pyridin-4-yl]oxy}phenyl]urea], for which, at MAP4K1, the IC50 was found to be 439 nM.

Turning to `O=C(NCCCN1CCOCC1)Nc1cc(F)c(Oc2ccnc3[nH]cc(C(F)(F)F)c23)c(C(F)(F)F)c1` [Example 4, 1-[3-fluoro-5-(trifluoromethyl)-4-{[3-(trifluoromethyl)-1H-pyrrolo[2,3-b]pyridin-4-yl]oxy}phenyl]-3-[3-(morpholin-4-yl)propyl]urea], the IC50 on MAP4K1 is 65 nM. Further, in the experiment on pSer376-SLP-76, the activity at 10 µM turned out to be 17% and the activity at 20 µM is below 1%.

For the compound `NC(=O)Nc1ccc(Oc2ccnc3[nH]cc(Cl)c23)c(C(F)(F)F)c1` [Example 8, 1-{4-[(3-chloro-1H-pyrrolo[2,3-b]pyridin-4-yl)oxy]-3-(trifluoromethyl)phenyl}urea], the IC50 at MAP4K1 was 188 nM. Moreover, in the experiment with pSer376-SLP-76, the activity at 10 µM worked out at 92.7% and the activity at 20 µM is 73.6%.

Consider `O=C(NCCN1CCOCC1)Nc1ccc(Oc2ccnc3[nH]cc(Cl)c23)c(C(F)(F)F)c1` [Example 7, 1-{4-[(3-chloro-1H-pyrrolo[2,3-b]pyridin-4-yl)oxy]-3-(trifluoromethyl)phenyl}-3-[2-(morpholin-4-yl)ethyl]urea], for which the concentration for half-maximal inhibition (IC50) on MAP4K1 amounted to 124 nM. For the same compound, in the experiment on pSer376-SLP-76, the activity at 10 µM was 5.1% and the activity at 20 µM is below 1%.

On to `NC(=O)Nc1ccc(Oc2ccnc3[nH]cc(C(F)(F)F)c23)c(C(F)(F)F)c1` [Example 3, 1-[3-(trifluoromethyl)-4-{[3-(trifluoromethyl)-1H-pyrrolo[2,3-b]pyridin-4-yl]oxy}phenyl]urea], for which, at MAP4K1, the IC50 was 56.2 nM. In the experiment with pSer376-SLP-76, the activity at 10 µM was found to be 21% and the activity at 20 µM was 2.6%.

The compound `O=C(Nc1ccc(Oc2ccnc3[nH]cc(Cl)c23)c(C(F)(F)F)c1)Nc1cccnn1` [Example 9, 1-{4-[(3-chloro-1H-pyrrolo[2,3-b]pyridin-4-yl)oxy]-3-(trifluoromethyl)phenyl}-3-pyridazin-3-ylurea] yielded a concentration for half-maximal inhibition (IC50) on MAP4K1 of 1260 nM.

At MAP4K1, `Cc1ncc(NC(=O)Nc2ccc(Oc3ccnc4[nH]cc(Cl)c34)c(C(F)(F)F)c2)cn1` [Example 10, 1-{4-[(3-chloro-1H-pyrrolo[2,3-b]pyridin-4-yl)oxy]-3-(trifluoromethyl)phenyl}-3-(2-methylpyrimidin-5-yl)urea] returned an IC50 of 171 nM. In the experiment on pSer376-SLP-76, the activity at 10 µM worked out at 15.9% and the activity at 20 µM was below 1%.

`O=C(NCCCN1CCOCC1)Nc1ccc(Oc2ccnc3[nH]cc(C(F)(F)F)c23)c(C(F)(F)F)c1` [Example 2, 1-[3-(morpholin-4-yl)propyl]-3-[3-(trifluoromethyl)-4-{[3-(trifluoromethyl)-1H-pyrrolo[2,3-b]pyridin-4-yl]oxy}phenyl]urea] registered an IC50 at MAP4K1 of 56.2 nM. For the same compound, in the experiment with pSer376-SLP-76, the activity at 10 µM was determined as 25.1% and the activity at 20 µM came to 6.5%.

The compound `O=C(NCCCN1CCOCC1)Nc1ccc(Oc2ccnc3[nH]cc(Cl)c23)c(C(F)(F)F)c1` [Example 6, 1-{4-[(3-chloro-1H-pyrrolo[2,3-b]pyridin-4-yl)oxy]-3-(trifluoromethyl)phenyl}-3-[3-(morpholin-4-yl)propyl]urea] yielded a concentration for half-maximal inhibition (IC50) on MAP4K1 of 158 nM. Besides, in the experiment on pSer376-SLP-76, the activity at 10 µM was found to be 69.9% and the activity at 20 µM is 29.5%.

At MAP4K1, `O=C(NCCN1CCOCC1)Nc1cc(F)c(Oc2ccnc3[nH]cc(C(F)(F)F)c23)c(C(F)(F)F)c1` [Example 5, 1-[3-fluoro-5-(trifluoromethyl)-4-{[3-(trifluoromethyl)-1H-pyrrolo[2,3-b]pyridin-4-yl]oxy}phenyl]-3-[2-(morpholin-4-yl)ethyl]urea] had an IC50 of 64.6 nM. For the same compound, in the experiment on pSer376-SLP-76, the activity at 10 µM came to 27.1% and the activity at 20 µM was below 1%.
